{"source": "paper PMC3904209", "about": "(AMB Express, 2014)", "conditions_in_all_cases": "50 mM KHCO3, 50 mM HEPES, 50 mM Na2SO4, 50 mM MgSO4, pH 6, 1°C", "key": {"[1]": {"biological_target": "T1, CaaB (Cupriavidus necator, UniProt Q0JYI9)", "T1 construct": "gene caa", "T1 sequence (Q0JYI9 24-249)": "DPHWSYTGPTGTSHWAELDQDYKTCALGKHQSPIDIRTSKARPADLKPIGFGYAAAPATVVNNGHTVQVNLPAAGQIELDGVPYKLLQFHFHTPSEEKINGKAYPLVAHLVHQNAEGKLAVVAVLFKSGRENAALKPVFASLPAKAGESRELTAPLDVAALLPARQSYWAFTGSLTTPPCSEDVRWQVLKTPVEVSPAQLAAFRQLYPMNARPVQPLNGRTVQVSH"}, "[2]": {"biological_target": "Can2 (Cupriavidus necator, UniProt Q0JYX2)", "sequence (Q0JYX2 1-235)": "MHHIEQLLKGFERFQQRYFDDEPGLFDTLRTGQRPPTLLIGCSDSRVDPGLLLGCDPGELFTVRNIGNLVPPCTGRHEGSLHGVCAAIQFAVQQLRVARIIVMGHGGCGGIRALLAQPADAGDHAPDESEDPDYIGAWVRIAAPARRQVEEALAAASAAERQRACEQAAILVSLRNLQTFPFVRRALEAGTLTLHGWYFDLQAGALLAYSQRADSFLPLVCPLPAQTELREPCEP"}, "[3]": {"biological_target": "Caa (Cupriavidus necator, UniProt Q0JYI9)", "sequence (Q0JYI9 1-249)": "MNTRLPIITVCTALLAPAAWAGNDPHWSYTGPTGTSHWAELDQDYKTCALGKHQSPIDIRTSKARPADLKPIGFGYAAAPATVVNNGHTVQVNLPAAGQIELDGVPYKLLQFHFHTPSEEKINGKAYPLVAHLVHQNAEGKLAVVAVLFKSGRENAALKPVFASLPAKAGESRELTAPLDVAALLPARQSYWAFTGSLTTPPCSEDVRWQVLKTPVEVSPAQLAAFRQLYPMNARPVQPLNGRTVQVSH"}, "[4]": {"biological_target": "T2, Cag (Cupriavidus necator, UniProt Q0KCD8)", "T2 construct": "gene H16_A1192", "T2 sequence (Q0KCD8 1-174)": "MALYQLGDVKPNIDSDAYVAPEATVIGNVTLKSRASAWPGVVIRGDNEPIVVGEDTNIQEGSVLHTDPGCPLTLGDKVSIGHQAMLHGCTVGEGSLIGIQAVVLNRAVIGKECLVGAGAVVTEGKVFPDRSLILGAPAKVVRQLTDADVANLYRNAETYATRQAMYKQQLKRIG"}, "[5]": {"biological_target": "Can (Cupriavidus necator, UniProt Q0KFA0)", "sequence (Q0KFA0 1-223)": "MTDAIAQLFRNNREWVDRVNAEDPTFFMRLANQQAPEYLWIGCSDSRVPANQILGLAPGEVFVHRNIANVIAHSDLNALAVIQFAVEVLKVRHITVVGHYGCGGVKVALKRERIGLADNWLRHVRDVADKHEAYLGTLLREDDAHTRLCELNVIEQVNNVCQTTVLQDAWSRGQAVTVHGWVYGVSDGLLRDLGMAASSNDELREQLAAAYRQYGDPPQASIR"}}}
{"smiles": "O=C(O)O", "note": "[bicarbonate]", "values": [{"measurement": "stopped-flow pH-indicator (phenol red, A557nm) assay", "setting": "[1]", "result": "(CaaB) exhibited similar activity values when compared to the purified, Strep-tagged Caa enzyme"}, {"measurement": "stopped-flow pH-indicator (phenol red, A557nm) assay", "setting": "[2]", "result": "the specific activities of both Can and Can2 were similar with bicarbonate as a substrate"}, {"measurement": "stopped-flow pH-indicator (phenol red, A557nm) assay", "setting": "[3]", "result": "All CAs were active towards CO2 and bicarbonate"}, {"measurement": "stopped-flow pH-indicator (phenol red, A557nm) assay", "setting": "[4]", "result": "Cag presented the highest activity using bicarbonate as a carbon source"}, {"measurement": "stopped-flow pH-indicator (phenol red, A557nm) assay", "setting": "[5]", "result": "the specific activities of both Can and Can2 were similar with bicarbonate as a substrate"}]}
